pIC50: −log10 of the molar value.

The target of this test is human P2X3 receptor (Homo sapiens (Human), UniProt P56373). As to the kind of experiment: Evaluation of human P2X3 receptor inhibitory activity (Fluo-3 calcium fluorescence, FDSS 3000, ATP stimulation).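 Also: stimulus was 50 nM ATP with fluorescence followed for 3 min, and the response per well was peak post-ATP fluorescence divided by the reading at measurement start.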 As to conditions: C6BU-1 cells stably expressing human P2X3 receptor, Fluo-3 fluorescence, FDSS 3000. The test is classed as cell-based.
Sequence of human P2X3 receptor (P56373 whole entry): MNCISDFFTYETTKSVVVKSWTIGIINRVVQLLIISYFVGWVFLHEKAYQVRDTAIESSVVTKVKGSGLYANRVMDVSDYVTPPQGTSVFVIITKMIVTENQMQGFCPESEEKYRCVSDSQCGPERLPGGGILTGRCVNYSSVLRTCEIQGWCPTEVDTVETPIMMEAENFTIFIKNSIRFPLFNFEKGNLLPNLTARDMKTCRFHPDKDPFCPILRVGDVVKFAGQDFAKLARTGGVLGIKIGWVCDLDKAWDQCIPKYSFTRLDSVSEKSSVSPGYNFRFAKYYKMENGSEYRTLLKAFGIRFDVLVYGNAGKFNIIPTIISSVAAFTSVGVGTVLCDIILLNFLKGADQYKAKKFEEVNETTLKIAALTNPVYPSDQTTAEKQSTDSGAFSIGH

As for `COC(=O)[C@@H](O)Cn1c(=O)[nH]/c(=N\c2ccc(OC(C)C)c(C)c2)n(Cc2ccc(Cl)cc2)c1=O` [Compound I-0994, (S)-1-(4-chlorobenzyl)-6-(3-mehyl-4-isopropoxyphenylimino)-3-(2-methoxycarbonyl-2-hydroxyethyl)-1,3,5-triazinane-2,4-dion], the negative logarithm of the IC50 (pIC50) is 7.70.

For the compound `C=C(C)c1ccc(Cn2c(=O)n(C[C@H](C)C(=O)OC)c(=O)[nH]/c2=N\c2ccc(OC(C)C)c(C)c2)cc1` [Compound I-0995], the pIC50 is 6.56.

As for `COC(=O)C(=O)Cn1c(=O)[nH]/c(=N\c2ccc(OC(C)C)c(C)c2)n(Cc2ccc(Cl)cc2)c1=O` [Compound I-0996, 1-(4-chlorobenzyl)-6-(3-mehyl-4-isopropoxyphenylimino)-3-(2-methoxycarbonyl-2-oxoethyl)-1,3,5-triazinane-2,4-dion], the pIC50 was 7.49.

With `COC(=O)[C@@H](C)Cn1c(=O)[nH]/c(=N\c2ccc(OC(C)C)c(C)c2)n(Cc2ccc(C(C)C)cc2)c1=O` [Compound I-0997], the pIC50 is 6.17.

For the compound `COC(=O)[C@@H](C)Cn1c(=O)[nH]/c(=N\c2ccc(Cl)c(Cl)c2)n(Cc2ccc(C)cc2)c1=O` [Compound I-0998], the pIC50 was 7.62.

`COC(=O)[C@@H](C)Cn1c(=O)[nH]/c(=N\c2ccc(OC(F)(F)F)cc2)n(Cc2ccc(C)cc2)c1=O` [Compound I-0999]: the pIC50 was 6.76.

In the case of `COC(=O)[C@@H](C)Cn1c(=O)[nH]/c(=N\c2ccc(Cl)c(C(F)(F)F)c2)n(Cc2ccc(C)cc2)c1=O` [Compound I-1000], the pIC50 was 6.94.

With `C=C(C)c1ccc(Cn2c(=O)n(C[C@H](C)C(=O)O)c(=O)[nH]/c2=N\c2ccc(OC(C)C)c(C)c2)cc1` [Compound I-1001], the pIC50 was 6.53.

Consider `Cc1ccc(Cn2c(=O)n(C[C@H](C)C(=O)O)c(=O)[nH]/c2=N\c2ccc(OC(F)(F)F)cc2)cc1` [Compound I-1002], for which the negative-log IC50 (pIC50) is 6.53.

As for `Cc1ccc(Cn2c(=O)n(C[C@H](C)C(=O)O)c(=O)[nH]/c2=N\c2ccc(Cl)c(C(F)(F)F)c2)cc1` [Compound I-1003], the negative-log IC50 (pIC50) is 6.64.

For the compound `Cc1ccc(Cn2c(=O)n(C[C@H](C)C(=O)O)c(=O)[nH]/c2=N\c2ccc(Cl)c(Cl)c2)cc1` [Compound I-1004], the pIC50 was 7.07.

As for `CCCCOc1ccc(/N=c2\[nH]c(=O)n(CC3(C(=O)OCC)CC3)c(=O)n2Cc2ccc(Cl)cc2)cc1` [Compound I-1005], the pIC50 was 7.51.

`CCOC(=O)C1(Cn2c(=O)[nH]/c(=N\c3ccc(OCC(C)C)cc3)n(Cc3ccc(Cl)cc3)c2=O)CC1` [Compound I-1007]: the pIC50 was 7.82.

For the compound `Cc1cc(/N=c2\[nH]c(=O)n(CC(=O)C(=O)O)c(=O)n2Cc2ccc(Cl)cc2)ccc1OC(C)C` [Compound I-1009], the negative logarithm of the IC50 (pIC50) is 7.16.

`CC(C)Oc1ccc(/N=c2\[nH]c(=O)n(CC3(CO)COC3)c(=O)n2Cc2ccc(Cl)cc2)cc1Cl` [Compound I-1010]: the pIC50 was 8.40.

With `CC(C)Oc1ccc(/N=c2\[nH]c(=O)n(CC3(C(=O)O)COC3)c(=O)n2Cc2ccc(Cl)cc2)cc1Cl` [Compound I-1011], the pIC50 is 7.68.

Turning to `CC(C)Oc1ccc(/N=c2\[nH]c(=O)n(CC(CO)(CO)C(=O)O)c(=O)n2Cc2ccc(Cl)cc2)cc1Cl` [Compound I-1012], the pIC50 was 7.29.

As for `CC[C@@H](C)Oc1ccc(/N=c2\[nH]c(=O)n(C[C@H](C)C(=O)O)c(=O)n2Cc2ccc(C)cc2)cc1Cl` [Compound I-1013], the negative-log IC50 (pIC50) was 8.30.

`CC[C@H](C)Oc1ccc(/N=c2\[nH]c(=O)n(C[C@H](C)C(=O)O)c(=O)n2Cc2ccc(C)cc2)cc1Cl` [Compound I-1014]: the negative-log IC50 (pIC50) was 7.77.

Consider `CC[C@@H](C)Oc1ccc(/N=c2\[nH]c(=O)n(C[C@H](C)C(=O)OC)c(=O)n2Cc2ccc(C)cc2)cc1Cl` [Compound I-1015], for which the negative-log IC50 (pIC50) is 8.15.

For `CC[C@H](C)Oc1ccc(/N=c2\[nH]c(=O)n(C[C@H](C)C(=O)OC)c(=O)n2Cc2ccc(C)cc2)cc1Cl` [Compound I-1016], the pIC50 was 7.77.

In the case of `Cc1cc(/N=c2\[nH]c(=O)n(C[C@H](C)C(=O)O)c(=O)n2Cc2ccc(C(C)C)cc2)ccc1OC(C)C` [Compound I-1017], the negative-log IC50 (pIC50) is 6.26.

With `CCOC(=O)CCn1c(=O)[nH]/c(=N\c2ccc(O[C@H](C)CC)cc2)n(Cc2ccc(C)cc2)c1=O` [Compound I-1018], the pIC50 is 8.10.

Consider `CCOC(=O)CCn1c(=O)[nH]/c(=N\c2ccc(O[C@H](C)CC)c(C)c2)n(Cc2ccc(C)cc2)c1=O` [Compound I-1019], for which the negative-log IC50 (pIC50) was 8.15.

As for `CCOC(=O)CCn1c(=O)[nH]/c(=N\c2ccc(O[C@H](C)CC)c(Cl)c2)n(Cc2ccc(C)cc2)c1=O` [Compound I-1020], the pIC50 is 8.22.

In the case of `CCOC(=O)CCn1c(=O)[nH]/c(=N\c2ccc(O[C@H](C)C(F)(F)F)cc2)n(Cc2ccc(C)cc2)c1=O` [Compound I-1021], the pIC50 was 8.15.

Turning to `COC(=O)[C@@H](C)Cn1c(=O)[nH]/c(=N\c2ccc(OC(F)F)c(Cl)c2)n(Cc2ccc(C)cc2)c1=O` [Compound I-1022], the negative-log IC50 (pIC50) was 7.85.

Consider `COC(=O)[C@@H](C)Cn1c(=O)[nH]/c(=N\c2ccc(CCC3CC3)c(C)c2)n(Cc2ccc(Cl)cc2)c1=O` [Compound I-1023], for which the negative logarithm of the IC50 (pIC50) was 6.52.

Take `Cc1cc(/N=c2\[nH]c(=O)n(C[C@H](C)C(=O)O)c(=O)n2Cc2ccc(Cl)cc2)ccc1CCC1CC1` [Compound I-1024]: the negative-log IC50 (pIC50) is 6.79.

In the case of `COC(=O)[C@@H](C)[C@H](C)n1c(=O)[nH]/c(=N\c2ccc(OC(C)C)c(C)c2)n(Cc2ccc(Cl)cc2)c1=O` [Compound I-1025], the pIC50 is 6.87.

`Cc1cc(/N=c2\[nH]c(=O)n([C@@H](C)[C@H](C)C(=O)O)c(=O)n2Cc2ccc(Cl)cc2)ccc1OC(C)C` [Compound I-1026]: the negative-log IC50 (pIC50) is 6.74.

Regarding `COC(=O)[C@@H](C)Cn1c(=O)[nH]/c(=N\c2ccc(OC(F)(F)F)c(Cl)c2)n(Cc2ccc(C)cc2)c1=O` [Compound I-1027], the pIC50 was 7.39.

Consider `CC[C@@H](C)Oc1ccc(/N=c2\[nH]c(=O)n(CCC(=O)O)c(=O)n2Cc2ccc(C)cc2)cc1` [Compound I-1028], for which the pIC50 was 7.11.

For the compound `CC[C@@H](C)Oc1ccc(/N=c2\[nH]c(=O)n(CCC(=O)O)c(=O)n2Cc2ccc(C)cc2)cc1C` [Compound I-1029], the negative-log IC50 (pIC50) is 7.46.

Regarding `CC[C@@H](C)Oc1ccc(/N=c2\[nH]c(=O)n(CCC(=O)O)c(=O)n2Cc2ccc(C)cc2)cc1Cl` [Compound I-1030], the pIC50 is 7.85.

For the compound `Cc1ccc(Cn2c(=O)n(CCC(=O)O)c(=O)[nH]/c2=N\c2ccc(O[C@H](C)C(F)(F)F)cc2)cc1` [Compound I-1031], the pIC50 is 7.19.

With `Cc1ccc(Cn2c(=O)n(C[C@H](C)C(=O)O)c(=O)[nH]/c2=N\c2ccc(OC(F)F)c(Cl)c2)cc1` [Compound I-1032], the negative-log IC50 (pIC50) is 7.48.

In the case of `Cc1ccc(Cn2c(=O)n(C[C@H](C)C(=O)O)c(=O)[nH]/c2=N\c2ccc(OC(F)(F)F)c(Cl)c2)cc1` [Compound I-1033], the pIC50 is 7.17.

On to `CCCOc1ccc(/N=c2\[nH]c(=O)n(C[C@@H](C)C(=O)OC)c(=O)n2Cc2ccc(Cl)cc2)cc1` [Compound I-1034], for which the pIC50 was 8.30.

As to `CCCOc1ccc(/N=c2\[nH]c(=O)n(C[C@@H](C)C(=O)O)c(=O)n2Cc2ccc(Cl)cc2)cc1` [Compound I-1035], the negative logarithm of the IC50 (pIC50) was 7.19.

In the case of `COC(=O)[C@H](C)Cn1c(=O)[nH]/c(=N\c2ccc(OCC3CC3)cc2)n(Cc2ccc(Cl)cc2)c1=O` [Compound I-1036], the negative logarithm of the IC50 (pIC50) was 8.30.

As for `C[C@H](Cn1c(=O)[nH]/c(=N\c2ccc(OCC3CC3)cc2)n(Cc2ccc(Cl)cc2)c1=O)C(=O)O` [Compound I-1037], the negative-log IC50 (pIC50) is 7.03.

With `CCCOc1ccc(/N=c2\[nH]c(=O)n(C[C@@H](CC)C(=O)OC)c(=O)n2Cc2ccc(Cl)cc2)cc1` [Compound I-1038], the negative-log IC50 (pIC50) is 8.22.

Regarding `CCCOc1ccc(/N=c2\[nH]c(=O)n(C[C@@H](CC)C(=O)O)c(=O)n2Cc2ccc(Cl)cc2)cc1` [Compound I-1039], the pIC50 was 7.08.

Take `CCSc1ccc(/N=c2\[nH]c(=O)n(C[C@H](C)C(=O)OC)c(=O)n2Cc2ccc(Cl)cc2)cc1C` [Compound I-1040]: the negative logarithm of the IC50 (pIC50) was 6.89.

As to `COC(=O)[C@@H](C)Cn1c(=O)[nH]/c(=N\c2ccc(C#CC3CC3)c(C)c2)n(Cc2ccc(Cl)cc2)c1=O` [Compound I-1041, (S)-1-(4-chlorobenzyl)-6-(3-mehyl-4-cyclopropylethynylphenylimino)-3-(2-methoxycarbonylpropyl)-1,3,5-triazinane-2,4-dion], the pIC50 was 7.00.

As to `Cc1cc(/N=c2\[nH]c(=O)n(C[C@H](C)C(=O)O)c(=O)n2Cc2ccc(Cl)cc2)ccc1C#CC1CC1` [Compound I-1042], the pIC50 is 6.83.

For `COC(=O)[C@@H](C)Cn1c(=O)[nH]/c(=N\c2ccc(CC(C)C)c(C)c2)n(Cc2ccc(C)cc2)c1=O` [Compound I-1043], the pIC50 was 8.00.

For the compound `Cc1ccc(Cn2c(=O)n(C[C@H](C)C(=O)O)c(=O)[nH]/c2=N\c2ccc(CC(C)C)c(C)c2)cc1` [Compound I-1044], the pIC50 is 7.72.

As for `CC[C@H](C)COc1ccc(/N=c2\[nH]c(=O)n(C[C@H](C)C(=O)OC)c(=O)n2Cc2ccc(C)cc2)cc1` [Compound I-1045], the pIC50 is 6.80.

For `CCC[C@H](C)Oc1ccc(/N=c2\[nH]c(=O)n(C[C@H](C)C(=O)OC)c(=O)n2Cc2ccc(C)cc2)cc1` [Compound I-1046], the pIC50 is 7.55.

For the compound `CCC[C@@H](C)Oc1ccc(/N=c2\[nH]c(=O)n(C[C@H](C)C(=O)OC)c(=O)n2Cc2ccc(C)cc2)cc1` [Compound I-1047], the pIC50 was 6.81.

For the compound `CCC(CC)Oc1ccc(/N=c2\[nH]c(=O)n(C[C@H](C)C(=O)OC)c(=O)n2Cc2ccc(C)cc2)cc1` [Compound I-1048], the negative logarithm of the IC50 (pIC50) is 7.42.

Take `COC(=O)[C@@H](C)Cn1c(=O)[nH]/c(=N\c2ccc(OCCC(C)C)cc2)n(Cc2ccc(C)cc2)c1=O` [Compound I-1049]: the pIC50 is 6.75.

Turning to `COC(=O)[C@@H](C)Cn1c(=O)[nH]/c(=N\c2ccc(OCC(C)(C)C)cc2)n(Cc2ccc(C)cc2)c1=O` [Compound I-1050], the negative-log IC50 (pIC50) is 6.41.

Values taken from patent publication US9718790B2, “Triazine derivative and pharmaceutical composition having an analgesic activity comprising the same” (SHIONOGI & CO., LTD., priority 2010, dated 2017).
